Laboratory results: article PMC11219871, “Epigenetic-based differentiation therapy for Acute Myeloid Leukemia” (Nature Communications, 2024)
Values joined by “and” are separate entries in the source; they are usually repeats but may differ in a detail not shown here. Equal values may be shown once. Read-outs that look alike come from different tables or passages of the source.

Columns and labels:
Format in all cases: cell-based, human
HL-60 [1] = assay: Differentiation-apoptosis assay, CD11b / annexin-V / Sytox Green / myeloid markers flow cytometry; set-up: Cell viability (%): concentration or dose not given beside the values; conditions: for Annexin V (%) Replicate 1 / Annexin V (%) Replicate 2 / Annexin V (%) Replicate 3 / CD11b (%) Replicate 1 / CD11b (%) Replicate 2 / CD11b (%) Replicate 3: HL-60, daily 25% GI50, 48 h
Experimental: Next, the cells were washed twice with phosphate-buffered saline (PBS) and resuspended in 1X Binding Buffer at a concentration of 1 × 10^6 cells/mL. […] Finally, after the addition of 400 µL of 1X Binding Buffer to each tube, samples were collected on a BD FACSCanto flow cytometer (Becton Dickinson, San Jose, CA, USA) and analyzed using FlowJo software.
Then, 1 million cells (volume of 250 µL) were added and incubated for 30 min at room temperature in darkness. After 10 min incubation at room temperature with 2 mL of FACSLysing 1X, cells were centrifuged at 540 g for 5 min and washed twice with FACSBuffer. Finally, after centrifugation at 540 g for 5 min cells were resuspended in FACSBuffer.

[2] = system: LINE-1 DNA methylation in MOLM-13; assay: LINE-1 pyrosequencing; conditions: MOLM-13, 5 days
Experimental: (§1) DNA methylation of the repetitive element LINE-1 was analyzed using a pyrosequencing technique. […] Cells were washed twice with PBS, and then genomic DNA was extracted using a DNA Kit (Nucleo Spin Tissue, Cat No 74095250, Macherey-Nagel) following the manufacturer's instructions. DNA purity and concentration were measured using a NanoDrop spectrophotometer (Thermo Scientific). A 1 μg amount of genomic DNA was treated and modified using a CpGenome DNA modification Kit (Cat No S7820, Chemicon International) following the manufacturer's instructions. […] [NT]) in a final volume of 25 μL. The resulting biotinylated PCR products were immobilized to Streptavidin Sepharose ® High-Performance beads (GE Healthcare) and processed to yield high-quality ssDNA using the PyroMark Vacuum Prep Workstation (Biotage) according to the manufacturer's instructions. The pyrosequencing reactions were performed using the PyromarkTM ID (Biotage), and sequence analysis was performed using the PyroQ-CpG analysis software (Biotage).

[3] = system: LINE-1 DNA methylation in ML-2; assay: LINE-1 pyrosequencing; conditions: ML-2, 10 days
Experimental: as §1

[4] = system: LINE-1 DNA methylation in MV4-11; assay: LINE-1 pyrosequencing; conditions: MV4-11, 5 days
Experimental: as §1

[5] = system: LINE-1 DNA methylation in HL-60; assay: LINE-1 pyrosequencing; conditions: HL-60, 10 days
Experimental: as §1

MV4-11 [6] = assay: Differentiation-apoptosis assay, CD11b / annexin-V / Sytox Green / myeloid markers flow cytometry; set-up: Cell viability (%): concentration or dose not given beside the values; conditions: MV4-11, 48 h treatment, replicates 1-3 (Suppl. Fig. 5A)
Experimental: (§2) Next, the cells were washed twice with phosphate-buffered saline (PBS) and resuspended in 1X Binding Buffer at a concentration of 1 × 10^6 cells/mL. An 8-µL aliquot of APC-CD11b (BD Pharmingen, Franklin Lakes, NJ, USA) and 1 µL of FITC annexin-V (AV) (BD Pharmingen, Franklin Lakes, NJ, USA) antibodies were added and incubated for 15 min at room temperature in the dark. Finally, after the addition of 400 µL of 1X Binding Buffer to each tube, samples were collected on a BD FACSCanto flow cytometer (Becton Dickinson, San Jose, CA, USA) and analyzed using FlowJo software.
(§3) For the rest of experiments, the mix of antibodies (2 µL of BV786-CD13, Cat No, 744748 BD; 1 µL of diluted 1:10 antibody of PB-HLADR, Cat No 307633, Biolegend; 5 µL of APCH7-CD14, Cat No 641394, BD) was added to 10 µL of Brilliant Stain Buffer Plus (Becton Dickinson, San Jose, CA, USA). Then, 1 million cells (volume of 250 µL) were added and incubated for 30 min at room temperature in darkness. After 10 min incubation at room temperature with 2 mL of FACSLysing 1X, cells were centrifuged at 540 g for 5 min and washed twice with FACSBuffer. Finally, after centrifugation at 540 g for 5 min cells were resuspended in FACSBuffer.

MOLM-13 [7] = assay: as above; set-up: Cell viability (%): concentration or dose not given beside the values; conditions: MOLM-13, 48 h treatment, replicates 1-3 (Suppl. Fig. 5A)
Experimental: as §2, §3

ML-2 [8] = assay: Cell proliferation assay: GI50
Experimental: (§4) Cell proliferation was analyzed using the CellTiter 96 Aqueous One Solution Cell Proliferation Assay (Promega, Madison, WI). This is a colorimetric method for determining the number of viable cells in proliferation. For the assay, suspension cells were cultured in triplicate at a density of 1 × 10^6 cells/mL in 96-well plates (100.000 cells/well, 100 µL/well), using only the 60 inner wells to avoid any border effects. […] Then, the cells were incubated with 100 μL/well of medium and 20 μL/well of CellTiter 96 Aqueous One Solution reagent for 1–3 h. […] The background absorbance was measured in wells with only cell line medium and solution reagent. First, the average of the absorbance from the control wells was subtracted from all other absorbance values. Data were calculated as the percentage of total absorbance of treated cells/absorbance of non-treated cells. The GI50 values of the different compounds were determined using non-linear regression plots made with GraphPad Prism v5 software.

MV4-11 [9] = assay: Cell proliferation assay: GI50; conditions: µM for the other inhibitors
Experimental: as §4

MOLM-13 [10] = assay: Cell proliferation assay: GI50
Experimental: as §4

HL-60 [11] = assay: Cell proliferation assay: GI50; conditions: µM for the other inhibitors, read-out: GI50
Experimental: as §4

ML-2 [12] = assay: Differentiation-apoptosis assay, CD11b / annexin-V / Sytox Green / myeloid markers flow cytometry; set-up: Cell viability: concentration or dose not given beside the values; conditions: ML-2, 48 h; replicates (Fig 4A)
Experimental: as §2, §3

[13] = HL-60, 48 h treatment, replicates 1-3 (Suppl. Fig. 5A)

`COc1cc2c(cc1OCCCN1CCCC1)N=C(N)C21CCC1` [Compound A-366, A-366, reference compound] was tested, and the “Annexin V (%) Replicate 1” value (HL-60 [1]) was 1.45%, the “Annexin V (%) Replicate 2” value (HL-60 [1]) was 1.05% and the “Annexin V (%) Replicate 3” value (HL-60 [1]) was 1.10%. For the same compound, the “CD11b (%) Replicate 1” value (HL-60 [1]) was 9.70%, the “CD11b (%) Replicate 2” value (HL-60 [1]) was 5.40% and the “CD11b (%) Replicate 3” value (HL-60 [1]) was 4.85%.
In the case of `Nc1ncn([C@H]2C[C@H](O)[C@@H](CO)O2)c(=O)n1` [Decitabine, reference compound], the “LINE-1 methylation (%) CG Position 1” value [2] is reported as 36% and 38%, the “LINE-1 methylation (%) CG Position 2” value [2] is reported as 37% and 43% and the “LINE-1 methylation (%) CG Position 3” value [2] is reported as 48% and 46%. For the same compound, the “LINE-1 methylation (%) CG Position 4” value [2] was 46% and 54%, the “LINE-1 methylation (%) CG Position 5” value [2] was 37% and 35% and the “LINE-1 methylation (%) CG Position 1” value [3] was 36% and 34%. For the same compound, the “LINE-1 methylation (%) CG Position 2” value [3] was 39% and 33%, the “LINE-1 methylation (%) CG Position 3” value [3] was 42% and the “LINE-1 methylation (%) CG Position 4” value [3] was 41% and 39%. For the same compound, the “LINE-1 methylation (%) CG Position 5” value [3] was 32% and 28%, the “LINE-1 methylation (%) CG Position 1” value [4] was 53% and 47% and the “LINE-1 methylation (%) CG Position 2” value [4] was 50% and 54%. The “LINE-1 methylation (%) CG Position 3” value [4] was 53% and 55%, the “LINE-1 methylation (%) CG Position 4” value [4] was 55% and 53% and the “LINE-1 methylation (%) CG Position 5” value [4] was 43% and 45%. For the same compound, the “LINE-1 methylation (%) CG Position 1” value [5] was 35% and 39%, the “LINE-1 methylation (%) CG Position 2” value [5] was 32% and 40% and the “LINE-1 methylation (%) CG Position 3” value [5] was 43% and 55%. For the same compound, the “LINE-1 methylation (%) CG Position 4” value [5] was 44% and 52%, the “LINE-1 methylation (%) CG Position 5” value [5] was 33% and 37% and the “Annexin V (%) Replicate 1” value (HL-60 [1]) was 4.10%. The “Annexin V (%) Replicate 2” value (HL-60 [1]) was 3.17%, the “Annexin V (%) Replicate 3” value (HL-60 [1]) was 2.48% and the “CD11b (%) Replicate 1” value (HL-60 [1]) was 7.50%. The “CD11b (%) Replicate 2” value (HL-60 [1]) was 9.90% and the “CD11b (%) Replicate 3” value (HL-60 [1]) was 9.03%.
In the case of `Nc1ccccc1NC(=O)c1ccc(CNC(=O)OCc2cccnc2)cc1` [Entinostat, reference compound], the “CD11b (%)” value (MV4-11 [6]) is reported as 41.0% and 45.6% and 43.2%, the “Cell viability (%)” value (MV4-11 [6]) is reported as 35.1% and 39.2% and 39.7% and the “CD11b (%)” value (MOLM-13 [7]) is reported as 76.1% and 83.2% and 84.3%. For the same compound, the “Cell viability (%)” value (MOLM-13 [7]) was 47.7% and 56.4% and 56.1%, the GI50 (ML-2 [8]; Homo sapiens, ML-2, 48 h) was 9.1 µM and the GI50 (ML-2 [8]; Homo sapiens, ML-2, ML-2, replicates 1-3, µM for the other inhibitors) was 6.6 µM. For the same compound, the GI50 (ML-2 [8]; ML-2, replicates 1-3, µM for the other inhibitors) was 10.9 µM and 9.8 µM, the GI50 (MV4-11 [9]; Homo sapiens, MV4-11, MV4-11, replicates 1-3) was 3.3 µM and the GI50 (MV4-11 [9]; MV4-11, replicates 1-3) was 2.8 µM and 3 µM. The GI50 (MOLM-13 [10]; Homo sapiens, MOLM-13, 48 h) was 2.4 µM, the GI50 (MOLM-13 [10]; Homo sapiens, MOLM-13, MOLM-13, replicates 1-3, µM for the other inhibitors) was 2.6 µM and the GI50 (MOLM-13 [10]; MOLM-13, replicates 1-3, µM for the other inhibitors) was 2 µM. For the same compound, the GI50 (HL-60 [11]; HL-60, replicates 1-3) was 8.3 µM and 7.3 µM, the GI50 (HL-60 [11]; Homo sapiens, HL-60, HL-60, replicates 1-3) was 7.8 µM and the “CD11b (%)” value (HL-60 [1]; [13]) was 32.6% and 37.2% and 30.1%. For the same compound, the “Cell viability (%)” value (HL-60 [1]; [13]) was 38.4% and 38.5% and 40.7%, the CD11b (ML-2 [12]) was 25.1% and 39.8% and 36.7% and the Cell viability (ML-2 [12]) was 59.1% and 65.7% and 58.8%.
